# Laboratory results published in patent US10052340B2 (XIAMEN UNIVERSITY, priority 2012, dated 2018).
# Columns and labels:
# KK-Ay mice = test: Mouse trial, KK-Ay diabetes and obesity model mice fed with high-fat diet; assay type: in vivo; conditions: for serum cholesterol / serum triglycerides: ivermectin/derivatives 1.3 mg/kg; for cholesterol in high density lipoprotein in serum / cholesterol in low density/very low density lipoprotein in serum / serum saccharides (glucose) level: 1.3 mg/kg i.p. daily, 14 days
# From the text: In order to detect the efficacy of abamectin/avermectin, ivermectin and the derivative doramectin in the body of a diabetes and obesity mouse model, we choose diabetes and obesity mouse model mice, KK-Ay mice, as the experimental subject.
# wild-type C57BL/6J mice = test: Mouse trial, wild-type mice fed with high-fat diet; conditions: high-fat diet, 1.3 mg/kg i.p. daily, 14 days
# Procedure: (§1) Wild-type C57BL/6J mice of 9-10 weeks old, and FXR gene deletion homozygous mice (FXR^−/−) and diabetes and obesity mouse model mice (KK-Ay) with the same background are used, fed with high-fat diet (Research Diets, D12492), with free access to water, in SPF grade animal room in experimental animal center, Xiamen University. […] Intraperitoneal injection is performed one time at 9 o'clock every morning, continued for 14 days, and the mice are measured for body weight and the food intake every two days. At the end of 14 days, the mice are provided with free access to water, and after being hungry for 6 h, the mouse body weights are measured, and the percentage of the final body weight relative to the initial body weight before the treatment of the injection trial indicates the change of mouse body weight. Then blood is sampled from the eye balls, and sera are obtained by separation. The components in serum are detected by the following kits respectively: sugar-oxidase method (Beijing Applygen); insulin (Crystal Chem. Inc., USA); total cholesterol and cholesterol in high and low density lipoprotein (Bioassay Systems, USA); triglyceride (Beijing Applygen and WAKO Chemicals Inc., Japan); free fatty acids (Bioassay Systems, USA); and aspartate aminotransferase and alanine aminotransferase (Biosino Bio-technology and Science Inc., Beijing, China). Mouse liver is taken, a part of which is fixed with paraformaldehyde, and embedded with paraffin, sectioned, and stained with hematoxylin and eosin, and a part of which is cryopreserved with liquid nitrogen for use in extracting RNA for measuring gene expression with fluorescence quantitative PCR.
# [1] = test system: FXR gene deletion homozygous mice (FXR−/−); test: Mouse trial, FXR knockout mice fed with high-fat diet; assay type: in vivo; conditions: 1.3 mg/kg i.p. daily, 14 days
# Procedure: as §1
# [2] = i.p. daily 14 days, GW4064 30 mg/kg
SMILES,"serum free fatty acids (KK-Ay mice; i.p. daily 14 days, ivermectin 1.3 mg/kg, GW4064 30 mg/kg)",serum cholesterol (KK-Ay mice; [2]),serum triglycerides (KK-Ay mice; [2]),cholesterol level in high density lipoprotein (wild-type C57BL/6J mice),cholesterol levels in low density and very low density lipoprotein (wild-type C57BL/6J mice),serum cholesterol level (wild-type C57BL/6J mice),serum glucose level (wild-type C57BL/6J mice),serum triglyceride (Tg) level (wild-type C57BL/6J mice),cholesterol in high density lipoprotein in serum (KK-Ay mice),cholesterol in low density/very low density lipoprotein in serum (KK-Ay mice),serum saccharides (glucose) level (KK-Ay mice),serum cholesterol level [1],serum glucose level [1]
CC(C)c1onc(-c2c(Cl)cccc2Cl)c1COc1ccc(/C=C/c2cccc(C(=O)O)c2)c(Cl)c1 [GW4064],significantly decrease,significantly decrease,significantly decrease,–,–,–,–,–,–,–,–,–,–
CCC(C)[C@H]1O[C@]2(C=C[C@@H]1C)C[C@@H]1C[C@@H](C/C=C(\C)[C@@H](O[C@H]3C[C@H](OC)[C@@H](O[C@H]4C[C@@H](OC)[C@H](O)[C@@H](C)O4)[C@H](C)O3)[C@@H](C)/C=C/C=C3\CO[C@@H]4[C@H](O)C(C)=C[C@@H](C(=O)O1)[C@]34O)O2 (stereo partly shown) [abamectin/avermectin],–,decreased,significantly decrease,significantly downregulated,downregulated,significantly decreases,significantly decreases,significantly decrease,significantly decrease,significantly decrease,significantly decrease,–,–
CO[C@H]1C[C@H](O[C@H]2[C@H](C)O[C@@H](O[C@@H]3/C(C)=C/C[C@@H]4C[C@@H](C[C@]5(C=C[C@H](C)[C@@H](C6CCCCC6)O5)O4)OC(=O)[C@@H]4C=C(C)[C@@H](O)[C@H]5OC/C(=C\C=C\[C@@H]3C)[C@]54O)C[C@@H]2OC)O[C@@H](C)[C@@H]1O [doramectin],–,decreased,significantly decrease,significantly downregulated,downregulated,significantly decreases,significantly decreases,significantly decrease,significantly decrease,significantly decrease,significantly decrease,not producing any significant change,not producing any significant change
